Laboratory results taken from patent EP0761672A1, “Cephalosporin containing in position 7 a substituted benzyloxyimino radical, processes for their preparation and intermediates for their preparation, their use as medicaments” (ROUSSEL UCLAF, priority 1995, dated 1997).
Converted amounts (≈) assume the structure as drawn.

Key:
Assay in all cases: In vitro activity, dilution method in solid medium (MIC)
Type in all cases: cell-based
[1] = test system: Staphylocoques Pénicilline résistants; conditions: Staphylocoques Pénicilline résistants (22 souches); geometric mean of all MICs of the strain group; 24 h incubation at 37°C; read-out: concentrations minimales inhibitrices (CMI), moyennes géométriques
Experimental: (§1) Activité in vitro, méthode des dilutions en milieu solide.
(§2) On prépare une série de boîtes dans lesquelles on répartit une même quantité de milieu nutritif stérile, contenant des quantités croissantes du produit à étudier puis chaque boîte est ensemencée avec plusieurs souches bactériennes.
(§3) Après incubation de 24 heures en étuve à 37°C, l'inhibition de la croissance est appréciée par l'absence de tout développement bactérien ce qui permet de déterminer les concentrations minimales inhibitrices (CMI) exprimées en microgrammes/cm^3.
(§4) Les résultats sont exprimés sous forme de moyennes géométriques de toutes les CMI obtenues, pour un groupe de souches particulier.

[2] = test system: Enterobactéries Céfotaxime résistantes; conditions: 24 h, read-out: concentrations minimales inhibitrices (CMI), moyennes géométriques
Experimental: as §1, §2, §3, §4

Pseudomonas aeruginosa = Pseudomonas aeruginosa (23 souches); geometric mean of all MICs of the strain group; 24 h incubation at 37°C; read-out: concentrations minimales inhibitrices (CMI), moyennes géométriques
Experimental: as §1, §2, §3, §4

Row | Structure (SMILES) | MIC [1] | MIC [2] | MIC (Pseudomonas aeruginosa)
1 | Nc1nc(/C(=N/OCc2cc(Cl)c(O)c(O)c2Cl)C(=O)N[C@@H]2C(=O)N3C(C(=O)[O-])=C(/C=C/C[n+]4cccc5ccccc54)CS[C@H]23)cs1 [Exemple 1] | 0.78 µg/mL (≈ 1.07 µM) | 0.11 µg/mL (≈ 0.151 µM) | 
2 | Nc1nc(/C(=N/OCc2cc(Cl)c(O)c(O)c2Cl)C(=O)N[C@@H]2C(=O)N3C(C(=O)[O-])=C(/C=C/C[n+]4ccn5ccccc54)CS[C@H]23)cs1 [Exemple 2] | 0.91 µg/mL (≈ 1.27 µM) | 0.19 µg/mL (≈ 0.265 µM) | 0.42 µg/mL (≈ 0.586 µM)
3 | Nc1nc(/C(=N/OCc2cc(Cl)c(O)c(O)c2Cl)C(=O)N[C@@H]2C(=O)N3C(C(=O)[O-])=C(/C=C/C[n+]4cccc5c4CCC5)CS[C@H]23)cs1 [Exemple 3] | 1.37 µg/mL (≈ 1.91 µM) | 0.13 µg/mL (≈ 0.181 µM) | 0.26 µg/mL (≈ 0.362 µM)
4 | Nc1nc(/C(=N/OCc2cc(F)c(O)c(O)c2F)C(=O)N[C@@H]2C(=O)N3C(C(=O)[O-])=C(/C=C/C[n+]4cccc5ccccc54)CS[C@H]23)cs1 [Exemple 4] | 0.37 µg/mL (≈ 0.533 µM) | 0.38 µg/mL (≈ 0.547 µM) | 0.14 µg/mL (≈ 0.202 µM)
5 | Nc1nc(/C(=N/OCc2cc(F)c(O)c(O)c2F)C(=O)N[C@@H]2C(=O)N3C(C(=O)[O-])=C(/C=C/C[n+]4ccn5ccccc54)CS[C@H]23)cs1 [Exemple 5] | 0.55 µg/mL (≈ 0.804 µM) | 0.26 µg/mL (≈ 0.38 µM) | 
6 | Nc1nc(/C(=N/OCc2cc(F)c(O)c(O)c2F)C(=O)N[C@@H]2C(=O)N3C(C(=O)[O-])=C(/C=C/C[n+]4cccc5c4CCC5)CS[C@H]23)cs1 [Exemple 6] | 0.63 µg/mL (≈ 0.92 µM) | 0.36 µg/mL (≈ 0.526 µM) | 1.12 µg/mL (≈ 1.64 µM)
7 | Nc1nc(/C(=N/OCc2cc(O)c(O)c(F)c2)C(=O)N[C@@H]2C(=O)N3C(C(=O)[O-])=C(/C=C/C[n+]4cccc5ccccc54)CS[C@H]23)cs1 [Exemple 7] | 0.3 µg/mL (≈ 0.443 µM) | 0.2 µg/mL (≈ 0.296 µM) | 0.47 µg/mL (≈ 0.695 µM)
8 | COC(=O)C(O/N=C(\C(=O)N[C@@H]1C(=O)N2C(C(=O)[O-])=C(/C=C/C[n+]3cccc4ccccc43)CS[C@H]12)c1csc(N)n1)c1cc(O)c(O)c(F)c1 (stereo partly drawn) [Exemple 8] | 0.3 µg/mL (≈ 0.408 µM) |  | 0.49 µg/mL (≈ 0.667 µM)
